This note sets out measurements from patent US20250289826A1, “PLPRO PROTEIN INHIBITOR, AND PREPARATION METHOD AND APPLICATION THEREOF” (priority 2022, published 2025).

The test deals with PLpro (Severe acute respiratory syndrome coronavirus 2 (2019-nCoV) (SARS-CoV-2), UniProt P0DTD1). Description: Assay for PLpro inhibitory activity (Ub-AMC fluorescence; single point inhibition test and IC50 determination). As to conditions: for inhibition at 1 µM: read-out: inhibition of PLpro (1 μM), 1 μM test compound, 100 nM PLpro, 10 μM Ub-AMC, 37° C. 30 min; for IC50: fluorescence measured after 15 min of reaction. Format: biochemical.

The structures appear in SMILES notation.

`Cc1ccc(N2CC(N(C)C)C2)cc1C(=O)NC1(C2=CCCc3ccccc32)CC1` [Example C25]: the inhibition at 1 µM came to 55%. With `Cc1ccc(N2CC(N(C)C)C2)cc1C(=O)NC1(c2cccc3ncccc23)CC1` [Example C27], the half-inhibitory concentration (IC50) worked out at 97.6 nM. For the same compound, under “1 μM test compound, 100 nM PLpro, 10 μM Ub-AMC, 37° C. 30 min”, the “inhibition of PLpro (1 μM)” value is listed as 88.3%.

With `Cc1ccc(N2CC(N(C)C)C2)cc1C(=O)NC1(c2ccnc3ccccc23)CC1` [Example C28], the midpoint of inhibition, the IC50, lay at 129 nM and the inhibition at 1 µM came to 89.7%. On to `Cc1ccc(N2CC(N(C)C)C2)cc1C(=O)NC1(c2ccnc3c(Cl)cccc23)CC1` [Example C29], for which the IC50 turned out to be 44.9 nM and the inhibition at 1 µM turned out to be 92.9%. With `COc1cccc2c(C3(NC(=O)c4cc(N5CC(N(C)C)C5)ccc4C)CC3)ccnc12` [Example C30], the 50% inhibitory concentration (IC50) was 67.4 nM and the inhibition at 1 µM was 91.5%. Consider `Cc1ccc(N2CCCC(N(C)C)C2)cc1C(=O)NC1(c2ccc(F)c3ccccc23)CC1` (stereo not shown) [Example C31], for which the inhibition at 1 µM was 49.2%. Take `Cc1ccc(N2CCCC(N(C)C)C2)cc1C(=O)NC1(c2ccnc3ccccc23)CC1` (stereo not shown) [Example C32]: the inhibition at 1 µM amounted to 43.9%. As for `Cc1ccc(N2CCS(=O)(=O)CC2)cc1C(=O)NC1(c2ccnc3ccccc23)CC1` [Example C33], the inhibition at 1 µM came to 41%. In the case of `Cc1ccc(NC2CN3CCC2CC3)cc1C(=O)NC1(c2ccnc3ccccc23)CC1` (stereo not shown) [Example C34], the inhibition at 1 µM was 31.1%.

Turning to `Cc1ccc(N2CCS(=O)(=O)CC2)cc1C(=O)NC1(c2ccc(F)c3ccccc23)CC1` [Example C35], the inhibition at 1 µM was determined as 2.6%. Still for that read-out and setting: under `COC1(C)CN(c2ccc(C)c(C(=O)NC3(c4cccc5ncccc45)CC3)c2)C1` [Example C36] stands 3.5%.

`Cc1ccc(N2CC(C(=O)O)C2)cc1C(=O)NC1(c2cccc3ncccc23)CC1` [Example C37]: the inhibition at 1 µM amounted to 12.6%. As to `COC1(C)CN(c2ccc(C)c(C(=O)NC3(c4ccc(F)c5ncccc45)CC3)c2)C1` [Example C38], the inhibition at 1 µM was 11.7%. Still for that read-out and setting: the figure for `Cc1ccc(NC2CN3CCC2CC3)cc1C(=O)NC1(c2ccc(F)c3ncccc23)CC1` (stereo not shown) [Example C39] is 40.8%; for `Cc1ccc(N2CCCC(N(C)C)C2)cc1C(=O)NC1(c2ccc(F)c3ncccc23)CC1` (stereo not shown) [Example C40] it is 55.2%. `Cc1ccc(N2CCS(=O)(=O)CC2)cc1C(=O)NC1(c2ccc(F)c3ncccc23)CC1` [Example C41]: the inhibition at 1 µM stood at 32.8%.

Turning to `Cc1ccc(N2CCN(C(C)C)CC2)cc1C(=O)NC1(c2ccnc3ccccc23)CC1` [Example C42], the inhibition at 1 µM was found to be 85.2%. The same measure, in the same setting: the figure for `Cc1ccc(N2CCN(C3CC3)CC2)cc1C(=O)NC1(c2ccnc3ccccc23)CC1` [Example C43] is 71.9%; for `Cc1ccc(N2CCN(C(C)C)CC2)cc1C(=O)NC1(c2ccc(F)c3ncccc23)CC1` [Example C44] it is 84.9%; for `Cc1ccc(N2CCN(C3CC3)CC2)cc1C(=O)NC1(c2ccc(F)c3ncccc23)CC1` [Example C45] it is 81.4%.

With `Cc1ccc(N2CCN(C3CC3)CC2)cc1C(=O)NC1(c2cccc3ncccc23)CC1` [Example C46], the inhibition at 1 µM was determined as 77.6%. Turning to `Cc1ccc(N2CC(N(C)C)C2)cc1C(=O)NC1(c2ccc3ccccc3c2)CC1` [Example C47], the inhibition at 1 µM stood at 58%. The same measure, in the same setting: the figure for `Cc1ccc(N2CCN(C(C)C)CC2)cc1C(=O)NC1(c2ccc(F)c3ccccc23)CC1` [Example C48] is 84.4%.

Regarding `Cc1ccc(N2CCN(C3CC3)CC2)cc1C(=O)NC1(c2ccc(F)c3ccccc23)CC1` [Example C49], the inhibition at 1 µM was found to be 58.4%.

`Cc1ccc(NC2CCNC2)cc1C(=O)NC1(c2ccc(F)c3ccccc23)CC1` (stereo not shown) [Example C50]: the inhibition at 1 µM is 27.8%. On to `Cc1ccc(NC2CCN(C)CC2)cc1C(=O)NC1(c2ccc(F)c3ncccc23)CC1` [Example C51], for which the inhibition at 1 µM worked out at 38.4%. Regarding `Cc1ccc(NC2CCNC2)cc1C(=O)NC1(c2ccc(F)c3ncccc23)CC1` (stereo not shown) [Example C53], the inhibition at 1 µM worked out at 44.9%. Take `Cc1ccc(NC2CCNCC2)cc1C(=O)NC1(c2ccc(F)c3ncccc23)CC1` [Example C56]: the inhibition at 1 µM came out at 24.5%. For `Cc1ccc(N2CC(N(C)C)C2)cc1C(=O)NC1(c2cccc3ccsc23)CC1` [Example C57], the inhibition at 1 µM turned out to be 92%. Regarding `Cc1ccc(N2CC(N(C)C)C2)cc1C(=O)NC1(c2ccc(OC(F)(F)F)c3ncccc23)CC1` [Example C58], it took 220 nM to reach half-maximal inhibition (IC50) and the inhibition at 1 µM was found to be 88%. For `Cc1ccc(N2CC([N+](C)(C)[O-])C2)cc1C(=O)NC1(c2ccc(F)c3ncccc23)CC1` [Example C59], the inhibition at 1 µM was 0%. In the case of `Cc1ccc(N2CC(N(C)C)C2)cc1C(=O)NC1(c2ccc(F)c3[nH]c(=O)ccc23)CC1` [Example C60], the inhibition at 1 µM turned out to be 82%. On the same count and under the same terms, under `Cc1ccc(N2CC(N(C)C)C2)cc1C(=O)NC1(c2cc(C(F)(F)F)nc3c(C(F)(F)F)cccc23)CC1` [Example C61] stands 85%; under `Cc1ccc(N2CC(N(C)C)C2)cc1C(=O)NC1(c2ccc(F)c3nc(C(F)F)ccc23)CC1` [Example C62], 92%. On the same count and under the same terms, the figure for `Cc1ccc(N2CCC(O)CC2)cc1C(=O)NC1(c2ccc(F)c3ncccc23)CC1` [Example C63] is 30%. Regarding `COc1ccc2c(C3(NC(=O)c4cc(N5CC(N(C)C)C5)ccc4C)CC3)ccc(F)c2n1` [Example C64], the half-inhibitory concentration (IC50) was found to be 50.6 nM and the inhibition at 1 µM is 78%. On to `Cc1ccc(N2CC(C(C)(C)O)C2)cc1C(=O)NC1(c2ccc(F)c3ncccc23)CC1` [Example C65], for which the inhibition at 1 µM was 22%. Turning to `Cc1ccc(N2CC3C(N)C3C2)cc1C(=O)NC1(c2ccc(F)c3ncccc23)CC1` (stereo not shown) [Example C66], the inhibition at 1 µM came to 68%. With `Cc1ccc(N2CC(N(C)C)C2)cc1C(=O)NC1(c2ccnc3c(F)cccc23)CC1` [Example C67], inhibition was half-maximal at 36.6 nM (IC50) and the inhibition at 1 µM was 97.7%.

Consider `Cc1ccc(N2CC(N(C)C)C2)cc1C(=O)NC1(c2ccc(OC(F)F)c3ccccc23)CC1` [Example C68], for which half-maximal inhibition (IC50) required 182 nM and the inhibition at 1 µM was 98.5%. With `Cc1ccc(N2CC(N(C)C)C2)cc1C(=O)NC1(c2ccc(OC(F)F)c3ncccc23)CC1` [Example C69], the half-inhibitory concentration (IC50) was 29.3 nM and the inhibition at 1 µM came to 98.8%. With `Cc1ccc(N2CC(N(C)C)C2)cc1C(=O)NC1(c2ccc(C#N)c3ccccc23)CC1` [Example C70], the 50% inhibitory concentration (IC50) was determined as 40.6 nM and the inhibition at 1 µM was found to be 99.2%. Consider `Cc1ccc(N2CC(N(C)C)C2)cc1C(=O)NC1(c2cccc(Oc3ccccc3)c2)CC1` [Example C71], for which the inhibition at 1 µM came to 25%. With `Cc1ccc(N2CC(N(C)C)C2)cc1C(=O)NC1(c2ccc3c(c2)c2ccccc2n3C)CC1` [Example C72], the inhibition at 1 µM was 91%. On to `Cc1ccc(N2CC(N(C)C)C2)cc1C(=O)NC1(c2cnc(O)c3ccccc23)CC1` [Example C73], for which the midpoint of inhibition, the IC50, lay at 172 ± 18.1 nM and the inhibition at 1 µM worked out at 89.3%.

`COc1ncc(C2(NC(=O)c3cc(N4CC(N(C)C)C4)ccc3C)CC2)c2ccccc12` [Example C74]: the IC50 came to 217 ± 22.2 nM and the inhibition at 1 µM was determined as 88.6%. As to `Cc1ccc(N2CC(N(C)C)C2)cc1C(=O)NC1(c2ccc(C)c3ncccc23)CC1` [Example C75], the midpoint of inhibition, the IC50, lay at 4.71 ± 1.38 nM and the inhibition at 1 µM is 99.4%. On to `COc1ccc(C2(NC(=O)c3cc(N4CC(N(C)C)C4)ccc3C)CC2)c2cccnc12` [Example C76], for which the half-maximal inhibitory concentration (IC50) was determined as 15.9 ± 3.25 nM and the inhibition at 1 µM is 99.6%.

As for `Cc1ccc(N2CC(N(C)C)C2)cc1C(=O)NC1(c2cccc3c2OCCO3)CC1` [Example C77], the inhibition at 1 µM amounted to 63%. As to `Cc1ccc(N2CC(N(C)C)C2)cc1C(=O)NC1(c2cccc3c2OCO3)CC1` [Example C78], the inhibition at 1 µM stood at 25.4%. Take `Cc1ccc(Br)cc1/C=N/C1(c2ccc(F)c3ncccc23)CC1` [Example C79]: the inhibition at 1 µM turned out to be 16.5%. Turning to `Cc1ccc(N2CC(N(C)C)C2)cc1/C=N/C1(c2ccc(F)c3ncccc23)CC1` [Example C80], the inhibition at 1 µM came to 11.9%. Take `Cc1ccc(N2CC(CN)C2)cc1C(=O)NC1(c2ccc(F)c3ncccc23)CC1` [Example C81]: the inhibition at 1 µM is 37.1%. Consider `Cc1ccc(N2CC(C(C)(C)N)C2)cc1C(=O)NC1(c2ccc(F)c3ncccc23)CC1` [Example C82], for which the inhibition at 1 µM came out at 8.2%. For the compound `Cc1ccc(N2CC(CN(C)C)C2)cc1C(=O)NC1(c2ccc(F)c3ncccc23)CC1` [Example C83], the inhibition at 1 µM came out at 24.2%. `Cc1ccc(N2CC(N(C)C)C2)cc1CNC1(c2ccc(F)c3ncccc23)CC1` [Example C85]: the inhibition at 1 µM is 45.7%. In the case of `Cc1ccc(N)cc1CNC1(c2ccc(F)c3ncccc23)CC1` [Example C86], the inhibition at 1 µM turned out to be 33.5%.

Consider `Cc1ccc(N)cc1C(=O)NC1(c2ccc(F)c3ncccc23)CC1` [Example C87], for which the inhibition at 1 µM was found to be 23.1%.

In the case of `Cc1ccc(N2CC(N(C)C)C2)cc1C(=O)NC1(c2ccc(N(C)C)c3ccccc23)CC1` [Example C88], it took 175 nM to reach half-maximal inhibition (IC50) and the inhibition at 1 µM worked out at 96.2%. Take `Cc1ccc2c(C3(NC(=O)c4cc(N5CC(N(C)C)C5)ccc4C)CC3)ccc(F)c2n1` [Example C89]: the half-maximal inhibitory concentration (IC50) amounted to 119 nM and the inhibition at 1 µM was determined as 82%. As to `[2H]C1([2H])C(N(C)C)C([2H])([2H])N1c1ccc(C)c(C(=O)NC2(c3ccc(F)c4ncccc34)CC2)c1` [Example C90], the IC50 stood at 69.8 nM and the inhibition at 1 µM was 85%. On to `Cc1ccc(N2CC(N(C)C)C2)cc1C(=O)NC1(c2cccc3c2ccn3C)CC1` [Example C91], for which the inhibition at 1 µM was 71%.

One may read the inhibition as the relative decrease from the control value, in per cent. The IC50 is the point on the concentration scale where inhibition reaches its midpoint. High values mean weaker potency, low ones greater potency.
